{"source": "patent US20120322060A1", "about": "“DIAGNOSIS AND MONITORING TREATMENT OF PSYCHIATRIC DISEASES WITH SPADIN AND RELATED METHODS” (CENTRE NATIONAL DE LE RECHERCHE SCIENTIFIQUE - CNRS -, priority 2011, published 2012)", "key": {"[1]": {"tested_on": "DRN 5-HT neurons", "test": "Extracellular unitary recordings of DRN 5-HT neurons in mice", "format": "in vivo, mouse", "conditions": "10^-5 M in 100 μl bolus i.p.", "description": "As previously described, single-barreled glass micropipettes (recording electrodes) were filled with a 2 M NaCl solution saturated with Fast Green FCF, resulting in an impedance of 2-5 MΩ. Mice were anaesthetized with chloral hydrate (400 mg/kg, i.p., using a 2% solution), and placed in a stereotaxic frame equipped with the Stoelting “just for mouse” adaptor. Electrodes were positioned 0.5-1 mm posterior to the interaural line on the midline, and were then lowered into the DRN, usually attained at a depth of 2.5 mm from the brain surface. 5-HT neurons were then encountered over a maximal distance of 1 mm. They were identified using the following criteria: a slow (0.5-2.5 Hz) and regular firing rate and long-duration (0.8-1.2 ms) action potentials, with a positive-negative spike. Spikes were computed by using the Spike 2 software, so that the firing rate was calculated as the mean number of events occurring within a 10 s period. For each neuron, the discharge was monitored during 60 seconds. Each mouse received either spadin (10^−5 M in a 100 μl bolus) or its vehicle (saline). Starting 30 min after the injection, 3 to 4 successive descents were performed along the DRN, for a total of 4-8 cells recorded per animal. Recordings were performed for a maximal duration of 4 hours post-injection."}, "[2]": {"tested_on": "rats", "test": "Forced Swim Test (FST) in rats", "format": "in vivo, rat", "conditions": "acute i.p. 10^-5 M, 30 min before test", "description": "Male Sprague-Dawley rats (Janvier, France), weighing 250-300 g were also used for the FST. Rats experienced a pretest session followed 24 h later by a test session. For both the pretest and the test sessions, conducted under low illumination (15 W), the animals were placed in a plastic cylindrical tank (50 cm high by 20 cm in diameter) filled with 40 cm deep water at 24° C. The pretest was carried out for 15 minutes and the test for 5 minutes in the same tank. The total period of immobility was analyzed during the last 4 min."}, "[3]": {"tested_on": "mice", "test": "Tail Suspension Test (TST)", "format": "in vivo, mouse", "description": "Mice were suspended by the tail. […] The immobility time was recorded during a 6 min test session."}, "[4]": {"tested_on": "dentate gyrus of the mouse hippocampus", "test": "Hippocampal neurogenesis (BrdU / DCX labeling)", "format": "in vivo", "description": "Twenty-four hours after the injection of BrdU (120 mg per kg of body weight in a 300 μl bolus), mice were euthanized and transcardially perfused with 4% cold paraformaldehyde. Serial sections of the brains were cut (40 μm) throughout the entire hippocampus on a vibratome (Leica). Every sixth section throughout the hippocampus was processed for BrdU or doublecortin (DCX) immunohistochemistry, as previously described. For each immunodetection, slides were first incubated overnight at 4° C. with a mouse monoclonal anti-BrdU antibody (1:200; Becton-Dickinson) or a goat anti-DCX (1:400, Santa Cruz Laboratories). For chromogenic immunodetection, sections were then incubated for 1 hour in biotin-conjugated species-specific secondary antibodies (1:100; Vector Laboratories) followed by a peroxidase-avidin complex solution according to the manufacturer's protocol. The peroxidase activity of immune complexes was visualized with DAB staining using the VectaStain ABC kit (Vector Laboratories). For fluorescent double-labeling, performed to determine the cell phenotype, sections were incubated overnight at 4° C. with anti-sheep BrdU (1:200, Interchim), anti-goat DCX (1:200, Santa Cruz Laboratories), or an anti-GFAP (Glial Fibrillary acidic protein, marker for astrocytes, 1:250, Dako). […] All BrdU-labeled cells in the granular cell layer and subgranular zone (SGZ) were counted in each section (n=10 and 5 mice per group) at 400× and 1000× magnification under a light microscope (Olympus) by an experimenter blinded to the study code. The total number of BrdU-positive cells per section was multiplied by 6 to obtain the total number of cells per dentate gyrus. The counting of BrdU/DCX labeled cells was performed using a Laser Scanning Confocal Microscope (TCS SP, Leica) equipped with a DMIRBE inverted microscope."}, "[5]": {"tested_on": "CREB", "test": "pCREB immunostaining in hippocampal sections", "format": "in vivo, mouse", "conditions": "4 days, i.p. 10^-5 M, hippocampal SGZ", "description": "Free floating sections were permeabilized in 0.1% Triton/PBS for 10 min and blocked with 3% goat serum/PBS for 2 hours at room temperature followed by a single wash in PBS. Sections were then incubated with the monoclonal anti-pCREB antibody (1:300, Cell Signaling Technology) overnight at 4° C. After three washes in PBS, sections were then incubated in biotinylated horse anti-rabbit IgG (Jackson ImmunoResearch, diluted 1:15000) for 2 hours at room temperature. pCREB expression was visualized by 3.3′-diaminobenzidine (DAB) staining using the VectaStain ABC kit (Biovalley). All sections were washed and mounted with Entellan. For BrdU/pCREB immunofluorescence staining, free floating sections of mice injected with BrdU were incubated with the primary antibodies, anti-rabbit pCREB (1:500, Cell Signaling Technology) and anti-mouse BrdU (1:40, Becton-Dickinson). After three washesin PBS, sections were then incubated in anti-IgGAlexa 488- or 594-coupled antibodies (Molecular Probes) for 1 h at room temperature. After drying sections in the dark boxes for 2 hours, they were mounted with Vectashield (Vector laboratories). Confocal microscopy observations were performed with the Laser Scanning Confocal Microscope (TCS SP, Leica) equipped with a DMIRBE inverted microscope, using a Plan Apo 63x/1,4 NA oil immersion objective."}}, "note": "Values joined by “and” are separate entries in the source; they are usually repeats but may differ in a detail not shown here. Equal values may be shown once. “Also recorded” adds a separate entry of the source. No end group written: not given here.", "data": [{"sequence": "APLPRWSGPIGVSWGLR [spadin]", "values": [{"measurement": "increase of DRN 5-HT neuron firing rate versus vehicle", "setting": "[1]", "value": 146, "unit": "%"}, {"measurement": "mean firing rate of DRN 5-HT neurons", "setting": "[1]", "value": "3.1±0.7", "unit": "Hz"}, {"measurement": "immobility time versus saline", "setting": "[2]", "value": "significantly reduced immobility time; also recorded: shorter time of immobility"}, {"measurement": "immobility times versus saline", "setting": "[3]; acute, i.v., 10^-6 M, 30 min before test", "value": "significantly reduced immobility times"}, {"measurement": "effect in TST", "setting": "[3]; injection in kcnk2-/- mice", "value": "did not induce any change"}, {"measurement": "reduction of time spent immobile", "setting": "[3]; subchronic, 4 days, spadin i.v. 10^-6 M, fluoxetine 3 mg/kg", "value": 28.1, "unit": "%"}, {"measurement": "BrdU-labelled cells expressing DCX", "setting": "[4]; 4-day treatment", "value": "85.2% and 85%"}, {"measurement": "number of BrdU-positive cells in the SGZ versus saline", "setting": "[4]; 4-day treatment, spadin i.p. 10^-5 M", "value": "significantly increased by two-fold"}, {"measurement": "number of BrdU-positive cells versus saline", "setting": "[4]; 15 days", "value": "maintained"}, {"measurement": "number of pCREB-labelled neurons versus saline", "setting": "[5]", "value": "two-fold increase"}]}]}
